Experiments:
[1] = Size and polydispersity index (PDI) of the lipid nanoparticle by dynamic light scattering; assay type: physicochemical; conditions: LNP encapsulating eGFP mRNA, ionizable lipid/DOPE/cholesterol/DMG-PEG2000 50/10/48.25/1.25 mol%, N/P 12; for Particle size: in nm (unit assumed)
Description: (§1) The ionizable lipid compound and positive control 1 from Example I were dissolved in ethanol at a molar ratio of 50:10:48.25:1.25 with DOPE, cholesterol, and DMG-PEG2000 (all purchased from A.V.T (Shanghai) Pharmaceutical Co., Ltd.) to prepare an ethanol lipid solution. The enhanced green fluorescent protein (eGFP) mRNA was diluted in 20 mM citrate buffer (pH=6.1) to obtain an mRNA aqueous solution. By using a microfluidic device (Micro&Nano Biologics Co., Ltd., model: INano ™ L) mix ethanol lipid solution and mRNA aqueous solution in a volume ratio of 1:3 to prepare a lipid nanoparticle with a total lipid to mRNA N/P ratio of 12. The medium was replaced by ultrafiltration, ethanol was removed and volumed with DPBS. Finally, the lipid nanoparticle was filtered through a 0.2 µm sterile filter to obtain an LNP preparation encapsulating eGFP mRNA using ionizable lipid/DOPE/cholesterol/DMG-PEG2000 (50/10/48.25/1.25 mol%), with an mRNA content of 0.002 mg/ml-0.5 mg/mL.
(§2) Using Malvern Zetasizer Nano ZS (Malvern UK), the size and polydispersity index (PDI) of the lipid nanoparticle were determined by dynamic light scattering in 173° backscatter detection mode, and the encapsulation efficiency was measured by Ribogreen method.

[2] = Encapsulation efficiency of the lipid nanoparticle (eGFP mRNA) by Ribogreen method; assay type: physicochemical; conditions: LNP encapsulating eGFP mRNA, ionizable lipid/DOPE/cholesterol/DMG-PEG2000 50/10/48.25/1.25 mol%, N/P 12
Description: as §1, §2

DC2.4 cells = assay: In vitro transfection of cells with eGFP-mRNA lipid nanoparticle (LNP preparation), fluorescence imaging and flow cytometry; assay type: cell-based, mouse; conditions: for Cell viability, % / Positive rate, %: DC2.4 cells, 200 ng of mRNA per well, after 24 hours; for Positive rate, %: eGFP positivity rate; for Mean fluorescence intensity: eGFP-mRNA expression on DC2.4 after 24 hours, normalized based on Example 11
Text: (§3) This example used mouse bone marrow-derived dendritic cells DC2.4 (purchased from Millipore) as the validation cell line for a lipid nanoparticle transfection experiment. DC2.4 cells adhered to the wall for growth. All operational steps of cell culture strictly followed the prescribed procedures, using sterile reagents for aseptic operations under a sterile workbench. The main operational steps involved were as follows: • 1) Cell recovery: the preserved cell cryopreservation solution was removed from the -80 °C freezer and immediately placed in a 37 °C water bath for rapid and continuous shaking, allowing it to completely melt within one minute. Fresh culture medium was added to a 15 mL centrifuge tube in advance, and the cell fluid was added to the centrifuge tube in a biosafety cabinet. A centrifuge tube of the same mass was taken, placed symmetrically in the centrifuge, and centrifuged at low speed for 5 minutes at 1200 rpm. After centrifugation, the upper clear liquid was removed, and an appropriate amount of culture medium was slowly added along the tube wall. After the cells were gently blown and dispersed evenly, the cell suspension was drawn and added to the prepared culture bottle. The state and distribution of cells in the early stage of recovery were observed under a microscope. The culture bottle was incubated in a 5% CO2 incubator at 37 °C, and the recovery time was recorded. • 2) Cell passaging: Under a microscope, if the cell density in the field of view reached 80%-90%, cells could be passaged and cultured. Adherent cells required trypsin digestion. In order to avoid residual serum in the culture medium reducing trypsin activity, the original culture medium was removed, and DPBS solution was added to wash once. After suctioning out the DPBS solution, trypsin was added to degrade the protein at the intercellular junction, thereby separating the cells and facilitating further cultivation. The mixture was gently shaken well and placed into the incubator for digestion for 2-3 minutes. After digestion was complete, an appropriate amount of culture medium was immediately added to the original culture dish to terminate digestion. Finally, a pipette was used to carefully blow off the cells and blow them until they were evenly dispersed, and then the cells were inoculated and subcultured in a certain proportion according to experimental requirements.
(§4) Transfection of DC2.4 cells • 1) DC2.4 cell recovery: the frozen DC2.4 cells were taken out from the -80 °C refrigerator and immediately put into a 37 °C water bath for rapid thawing. After melting, they were added to the preheated culture medium, and centrifuged at 1200 rpm for 5 minutes. The supernatant was discarded, and an appropriate amount of DMEM medium containing 10% FBS was added to resuspend the recovered DC2.4 cells, which were placed in a 37 °C, 5% CO2 incubator for activation culture. • 2) According to experimental requirements, DC2.4 cells were transfected into 24 well plates one day in advance. By counting cells, the number and viability of cells were recorded, and a cell suspension with 2 × 10^5 cells per well were taken. Then, a certain volume of DMEM medium containing 10% FBS was added and mixed evenly, wherein 1 mL was added per well for subsequent transfection experiments. • 3) After 24 hours, the culture medium was gently aspirated with a pipette 30 minutes in advance, and each well was washed with 1 mL of DPBS and aspirated. […] The mixture was placed in a 37 °C, 5% CO2 incubator for activation cultivation. • 6) After 24 hours, cell viability (%), eGFP positivity rate (%), and mean fluorescence intensity data were obtained through cell fluorescence imaging and flow cytometry.

[3] = as above; assay type: cell-based, mouse; conditions: mouse, dc2.4 cells, 200 ng of mRNA per well, after 24 hours; read-out: Cell viability, %
Text: as §3, §4

Molecule | PDI [1] | Encapsulation rate, % [2] | Cell viability, % (DC2.4 cells) | Positive rate, % (DC2.4 cells) | Mean fluorescence intensity (DC2.4 cells) | Particle size [1] | viability at 24 h [3] | Cell viability, % (DC2.4 cells; 1440 min)
4,4'-(3-(((2-hydroxyethyl)((E)-4-oxo-4-(undecyloxy)but-2-en-1-yl)amino)propyl)azadiyl)(2E,2'E)-di(but-2-enoic acid) [Example 105] | 0.24 | 66.08% | 95.8% | 78.32% | 0.39 |  |  | 
4,4'-didecyl((4-(decyloxy)-4-oxobutyl)(3-hydroxypropyl)amino)butyl)azetidinyl)dibutanoate [Example 102] | 0.12 | 93.93% | 94.6% | 93.18% | 1.28 | 94.58 |  | 
8-((6Z,10Z,46Z,49Z)-30-(3-hydroxypropyl)-20,36-dioxo-26,30-diaza-19,37-dioxapentatriacontane-6,9,46,49-tetraen-26-yl)(7Z,10Z)-hexadec-7,10-dien-1-yl octanoate [Example 96] | 0.13 | 93.34% | 96.6% | 94.64% | 0.97 | 89.25 |  | 
CCCCCCCCC(CCCCCCCC)OC(=O)CCCCCCCN(CCO)CCCN(CCCCCCCC(=O)OC(CCCCCCCC)CCCCCCCC)CCCCCCCC(=O)OC(CCCCCCCC)CCCCCCCC [Example 2, Di(heptadecane-9-yl)8,8'-((3-((8-(heptadecane-9-oxy)-8-oxooctyl)(2-hydroxyethyl)amino)propyl)azanediyl)dioctanoate] | 0.24 | 97.27% |  | 73.48% |  |  | 82.9% | 
CCCCCCCCCCCOC(=O)CCCCN(CCO)CCCN(CCCCC(=O)OCCCCCCCCCCC)CCCCC(=O)OCCCCCCCCCCC [Example 38, Diundecyl 5,5'-((3-((2-hydroxyethyl)(5-oxo-5-(undecyloxy)pentyl)amino)propyl)azadiyl)dipentanoate] | 0.10 | 99.04% |  | 90.28% |  | 65.19 |  | 94.1%
CCCCC/C=C\C/C=C\CCCCCCCCOC(=O)CCCCCCCN(CCO)CCCN(CCCCCCCC(=O)OCCCCCCCC/C=C\C/C=C\CCCCC)CCCCCCCC(=O)OCCCCCCCC/C=C\C/C=C\CCCCC [Example 79] | 70.67 | 99.80% |  | 95.05% |  | 99.80 |  | 95.0%
CCCCCCCCCCCCOC(=O)CCCN(CCCO)CCCCN(CCCC(=O)OCCCCCCCCCCCC)CCCC(=O)OCCCCCCCCCCCC [Example 84] | 0.11 | 97.58% |  | 96.42% |  | 89.72 |  | 90.2%
CCCCCCCCCCCCCOC(=O)CCCN(CCCO)CCCCN(CCCC(=O)OCCCCCCCCCCCCC)CCCC(=O)OCCCCCCCCCCCCC [Example 85, 4,4'-((4-((3-hydroxypropyl)(4-oxo-4-(tridecyloxy)butyl)amino)butyl)azetidinyl)dibutyric acid diester] | 0.10 | 93.32% |  | 96.2% |  |  |  | 95.9%
CCCCCCCCCCCCCOC(=O)CCCCCCCN(CCO)CCCN(CCCCCCCC(=O)OCCCCCCCCCCCCC)CCCCCCCC(=O)OCCCCCCCCCCCCC [Example 90, Tridecyl 8-(29-hydroxy-15-oxo-23-(8-oxo-8-(tridecyloxy)octyl)-23,27-diaza-14-oxanonacosane-27-yl)octanoate] | 0.14 | 94.33% |  | 92.38% |  | 84.42 |  | 91.6%
CCCCCCCCCCCOC(=O)CCCCCCCCCN(CCO)CCCN(CCCCCCCCCC(=O)OCCCCCCCCCCC)CCCCCCCCCC(=O)OCCCCCCCCCCC [Example 91, Undecyl 10-(29-hydroxy-13-oxo-23-(10-oxo-10-(undecyl)oxydecyl)-23,27-diaza-12-oxanonacosane-27-yl)caprate] | 0.24 | 79.63% |  | 62.74% |  |  |  | 91.4%
CCCCCC/C=C\COC(=O)CCCCCCCCCN(CCO)CCCN(CCCCCCCCCC(=O)OC/C=C\CCCCCC)CCCCCCCCCC(=O)OC/C=C\CCCCCC [Example 92, 10-((7Z)-27-hydroxy-21-(10-(((2Z)-non-2-enyl)oxy)-10-oxodecyl)-11-oxo-21,25-diaza-10-oxaheptacosane-7-en-25-yl)decanoic acid-(2Z)-non-2-en-1-yl ester] | 0.28 | 76.22% |  | 73.64% |  |  |  | 92.6%
CC/C=C\COC(=O)CCCCCCCN(CCO)CCCN(CCCCCCCC(=O)OC/C=C\CC)CCCCCCCC(=O)OC/C=C\CC [Example 97] | 0.34 | 67.68% |  | 83.64% |  |  |  | 90.5%
Tetratridecyl 8,8',8",8"-(((3-hydroxypropyl)azadiyl)di(propane-3,1-diyl))di(azanetriyl)tetraoctanoate [Example 99] | 0.26 | 69.17% | 93.2% | 77.44% | 0.49 |  |  | 

Source: patent EP4678629A1, “IONIZABLE LIPID MOLECULE, PREPARATION METHOD THEREFOR AND USE THEREOF” (Maxirna (Shanghai) Pharmaceutical Co., Ltd., priority 2023, dated 2024)
